≈ marks a conversion by molar mass, not a printed value. Where two headings read alike, the source gives them in different places.
Tests used:
E. faecalis VRE 6 = assay: MIC, broth microdilution, vancomycin-resistant E. faecalis VRE 6 (VanA); format: cell-based, Enterococcus faecalis; settings: for MIC: Enterococcus faecalis VRE 6 (vancomycin-resistant), read-out: MIC; for MIC-fold improvement vs. vancomycin: VRE 6, ratio of MIC of vancomycin and MIC of analogue
Summary of the method: (§1)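 Controls (ultrapure water; broth not inoculated) were included throughout CLSI-compliant broth microdilution. One condition supplemented analogue or comparator with 10 μM vancomycin, final level.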

E. faecalis VSE 1 = assay: MIC, broth microdilution, vancomycin-sensitive E. faecalis (VSE 1); format: cell-based, Enterococcus faecalis; settings: for MIC: Enterococcus faecalis VSE 1 (vancomycin-sensitive), read-out: MIC; for MIC-fold improvement vs. vancomycin: VSE 1, ratio of MIC of vancomycin and MIC of analogue
Summary of the method: as §1

E. faecalis VRE 29 = assay: MIC, broth microdilution, vancomycin-resistant E. faecalis VRE 29 (VanA); format: cell-based, Enterococcus faecalis; settings: for MIC: Enterococcus faecalis VRE 29 (vancomycin-resistant), read-out: MIC; for MIC-fold improvement vs. vancomycin: VRE 29, ratio of MIC of vancomycin and MIC of analogue
Summary of the method: as §1

[1] = system: human cervix carcinoma (HeLa) cells; assay: Cytostatic activity, HeLa cell proliferation; format: cell-based; settings: mean ± SD of three experiments; highest concentration tested 250 µM; 4 days; read-out: Toxicity (IC50) HeLa
Summary of the method: (§2)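 Coulter counter cell counts after 37°C culture with compound; IC50 = concentration giving 50% growth inhibition vs negative control. Incubation: L1210 2 d, CEM 3 d, HeLa 4 d. Suspension density before mixing with an equal volume of dilution: 300,000–500,000 cells/mL.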

MRSA KS1 = assay: MIC, broth microdilution, MRSA KS1; format: cell-based, Staphylococcus aureus; settings: for MIC-fold improvement vs. vancomycin: MRSA KS1, ratio of MIC of vancomycin and MIC of analogue; for MIC: Staphylococcus aureus MRSA KS1, read-out: MIC
Summary of the method: as §1

[2] = system: L1210, CEM and HeLa cell lines; assay: Cytostatic activity, average or summary over L1210, CEM and HeLa; format: cell-based; settings: average of L1210, CEM and HeLa; read-out: Toxicity (IC50) Average
Summary of the method: as §2

MRSA KS2 = assay: MIC, broth microdilution, MRSA KS2; format: cell-based, Staphylococcus aureus; settings: for MIC-fold improvement vs. vancomycin: MRSA KS2, ratio of MIC of vancomycin and MIC of analogue; for MIC: Staphylococcus aureus MRSA KS2, read-out: MIC
Summary of the method: as §1

S. aureus VRSA = assay: MIC, broth microdilution, vancomycin-resistant S. aureus (VRSA); format: cell-based, Staphylococcus aureus; settings: for MIC: Staphylococcus aureus VRSA, read-out: MIC; for MIC-fold improvement vs. vancomycin: VRSA, ratio of MIC of vancomycin and MIC of analogue
Summary of the method: as §1

[3] = system: Murine leukemia (L1210) cells; assay: Cytostatic activity, L1210 cell proliferation; format: cell-based; settings: mean ± SD of three experiments; highest concentration tested 250 µM; 2 days; read-out: Toxicity (IC50) L1210
Summary of the method: as §2

[4] = system: S. aureus VSSA (ATCC 6538); assay: MIC, broth microdilution, vancomycin-sensitive S. aureus (VSSA/MSSA, ATCC 6538); format: cell-based, Staphylococcus aureus; settings: for MIC: Staphylococcus aureus VSSA, read-out: MIC; for MIC-fold improvement vs. vancomycin: VSSA, ratio of MIC of vancomycin and MIC of analogue
Summary of the method: as §1

E. faecalis VRE 37 = assay: MIC, broth microdilution, vancomycin-resistant E. faecalis VRE 37 (VanA); format: cell-based, Enterococcus faecalis; settings: for MIC: Enterococcus faecalis VRE 37 (vancomycin-resistant), read-out: MIC
Summary of the method: as §1

MRSA KS6 = assay: MIC, broth microdilution, MRSA KS6; format: cell-based, Staphylococcus aureus; settings: for MIC-fold improvement vs. vancomycin: MRSA KS6, ratio of MIC of vancomycin and MIC of analogue; for MIC: Staphylococcus aureus MRSA KS6, read-out: MIC
Summary of the method: as §1

[5] = system: human T-lymphocyte (CEM) cells; assay: Cytostatic activity, CEM cell proliferation; format: cell-based; settings: mean ± SD of three experiments; highest concentration tested 250 µM; 3 days; read-out: Toxicity (IC50) CEM
Summary of the method: as §2

E. faecalis VRE 53 = assay: MIC, broth microdilution, vancomycin-resistant E. faecalis VRE 53 (VanA); format: cell-based, Enterococcus faecalis; settings: for MIC: Enterococcus faecalis VRE 53 (vancomycin-resistant), read-out: MIC; for MIC-fold improvement vs. vancomycin: VRE 53, ratio of MIC of vancomycin and MIC of analogue
Summary of the method: as §1

S. aureus VISA/HIP5827 = assay: MIC, broth microdilution, vancomycin-intermediate S. aureus VISA HIP5827; format: cell-based, Staphylococcus aureus; settings: for MIC: Staphylococcus aureus VISA/HIP5827, read-out: MIC; for MIC-fold improvement vs. vancomycin: VISA/HIP5827, ratio of MIC of vancomycin and MIC of analogue
Summary of the method: as §1

MRSA KS89 = assay: MIC, broth microdilution, MRSA KS89; format: cell-based, Staphylococcus aureus; settings: for MIC-fold improvement vs. vancomycin: ratio of MIC of vancomycin and MIC of analogue; for MIC: read-out: MIC
Summary of the method: as §1

MIC (E. faecalis VRE 6) [µM]	MIC-fold improvement vs. vancomycin (E. faecalis VRE 6)	MIC (E. faecalis VSE 1) [µM]	MIC-fold improvement vs. vancomycin (E. faecalis VSE 1)	MIC (E. faecalis VRE 29) [µM]	MIC-fold improvement vs. vancomycin (E. faecalis VRE 29)	MIC-fold improvement vs. vancomycin (MRSA KS1)	MIC (MRSA KS1) [µM]	MIC-fold improvement vs. vancomycin (MRSA KS2)	MIC (MRSA KS2) [µM]	MIC (S. aureus VRSA) [µM]	MIC-fold improvement vs. vancomycin (S. aureus VRSA)	MIC [4] [µM]	MIC-fold improvement vs. vancomycin [4]	MIC (E. faecalis VRE 37) [µM]	MIC-fold improvement vs. vancomycin (MRSA KS6)	MIC (MRSA KS6) [µM]	Compound	IC50 [1] [µM]	IC50 [2] [µM]	IC50 [3] [µM]	also measured
6.25 (≈ 10.2 µg/mL)	32	0.39 (≈ 0.636 µg/mL)	4	12.5 (≈ 20.4 µg/mL)	32	2	0.39 (≈ 0.636 µg/mL)	2	0.39 (≈ 0.636 µg/mL)	6.25 (≈ 10.2 µg/mL)	16	0.78 (≈ 1.27 µg/mL)	1	12.5 (≈ 20.4 µg/mL)	2	0.39 (≈ 0.636 µg/mL)	CN[C@H](CC(C)C)C(=O)N[C@H]1C(=O)N[C@@H](CC(N)=O)C(=O)N[C@H]2C(=O)N[C@H]3C(=O)N[C@H](C(=O)N[C@H](C(=O)NCC(=O)Nc4cccc5ccccc45)c4cc(O)cc(O)c4-c4cc3ccc4O)[C@H](O)c3ccc(c(Cl)c3)Oc3cc2cc(c3O[C@@H]2O[C@H](CO)[C@@H](O)[C@H](O)[C@H]2O[C@H]2C[C@](C)(N)[C@H](O)[C@H](C)O2)Oc2ccc(cc2Cl)[C@H]1O [Vanc-41]	> 250	> 250	> 250	IC50 [5]: > 250 µM; MIC (E. faecalis VRE 53): 25 µM (≈ 40.8 µg/mL); MIC-fold improvement vs. vancomycin (E. faecalis VRE 53): 16; MIC (S. aureus VISA/HIP5827): 1.56 µM (≈ 2.55 µg/mL); MIC-fold improvement vs. vancomycin (S. aureus VISA/HIP5827): 4; MIC-fold improvement vs. vancomycin (MRSA KS89; MRSA KS8): 2; MIC (MRSA KS89; Staphylococcus aureus MRSA KS8): 0.39 µM (≈ 0.636 µg/mL)
1.56 (≈ 2.68 µg/mL)	128	≤0.05	≥32	6.25 (≈ 10.7 µg/mL)	64	8	0.10 (≈ 0.172 µg/mL)	8	0.10 (≈ 0.172 µg/mL)	0.39 (≈ 0.67 µg/mL)	256	0.10 (≈ 0.172 µg/mL)	8	6.25 (≈ 10.7 µg/mL)	8	0.10 (≈ 0.172 µg/mL)	CCCCCn1cc(-c2ccc(NC(=O)CNC(=O)C3NC(=O)C4NC(=O)C(NC(=O)C5NC(=O)C(CC(N)=O)NC(=O)C(NC(=O)C(CC(C)C)NC)C(O)c6ccc(c(Cl)c6)Oc6cc5cc(c6OC5OC(CO)C(O)C(O)C5OC5CC(C)(N)C(O)C(C)O5)Oc5ccc(cc5Cl)C4O)c4ccc(O)c(c4)-c4c(O)cc(O)cc43)cc2)nn1 (stereo not shown) [Vanc-91]	147 ± 11	136	154 ± 93	MIC-fold improvement vs. vancomycin (E. faecalis VRE 37; VRE 37, ratio of MIC of vancomycin and MIC of analogue): 64; IC50 [5]: 107 ± 25 µM; MIC (E. faecalis VRE 53): 25 µM (≈ 43 µg/mL); MIC-fold improvement vs. vancomycin (E. faecalis VRE 53): 16; MIC (S. aureus VISA/HIP5827): 0.39 µM (≈ 0.67 µg/mL); MIC-fold improvement vs. vancomycin (S. aureus VISA/HIP5827): 16; MIC-fold improvement vs. vancomycin (MRSA KS89; MRSA KS8 (head; KS89 in title)): 4; MIC (MRSA KS89; Staphylococcus aureus MRSA KS8 (head; KS89 in title)): 0.20 µM (≈ 0.344 µg/mL)

Compound	MIC (E. faecalis VRE 6) [µM]	MIC-fold improvement vs. vancomycin (E. faecalis VRE 6)	MIC (E. faecalis VSE 1) [µM]	MIC-fold improvement vs. vancomycin (E. faecalis VSE 1)	MIC (E. faecalis VRE 29) [µM]	MIC-fold improvement vs. vancomycin (E. faecalis VRE 29)	MIC-fold improvement vs. vancomycin (MRSA KS1)	MIC (MRSA KS1) [µM]	MIC-fold improvement vs. vancomycin (MRSA KS2)	MIC (MRSA KS2) [µM]	MIC (S. aureus VRSA) [µM]	MIC-fold improvement vs. vancomycin (S. aureus VRSA)	MIC [4] [µM]	MIC-fold improvement vs. vancomycin [4]	MIC (E. faecalis VRE 37) [µM]	MIC-fold improvement vs. vancomycin (MRSA KS6)	MIC (MRSA KS6) [µM]	IC50 [1] [µM]	IC50 [2] [µM]	IC50 [3] [µM]	also measured
CN[C@H](CC(C)C)C(=O)N[C@H]1C(=O)N[C@@H](CC(N)=O)C(=O)N[C@H]2C(=O)N[C@H]3C(=O)N[C@H](C(=O)N[C@H](C(=O)NCCNC(=O)/C=C/c4ccc(NS(=O)(=O)c5ccc(C)cc5)cc4)c4cc(O)cc(O)c4-c4cc3ccc4O)[C@H](O)c3ccc(c(Cl)c3)Oc3cc2cc(c3O[C@@H]2O[C@H](CO)[C@@H](O)[C@H](O)[C@H]2O[C@H]2C[C@](C)(N)[C@H](O)[C@H](C)O2)Oc2ccc(cc2Cl)[C@H]1O [Vanc-55]	6.25 (≈ 11.2 µg/mL)	32	0.39 (≈ 0.698 µg/mL)	4	12.5 (≈ 22.4 µg/mL)	32	4	0.20 (≈ 0.358 µg/mL)	4	0.20 (≈ 0.358 µg/mL)	0.39 (≈ 0.698 µg/mL)	256	0.78 (≈ 1.4 µg/mL)	1	12.5 (≈ 22.4 µg/mL)	2	0.39 (≈ 0.698 µg/mL)	103 ± 10	201	> 250	IC50 [5]: ≥ 250 µM; MIC (E. faecalis VRE 53): 12.5 µM (≈ 22.4 µg/mL); MIC-fold improvement vs. vancomycin (E. faecalis VRE 53): 32; MIC (S. aureus VISA/HIP5827): 0.78 µM (≈ 1.4 µg/mL); MIC-fold improvement vs. vancomycin (S. aureus VISA/HIP5827): 8; MIC-fold improvement vs. vancomycin (MRSA KS89; MRSA KS8): 2; MIC (MRSA KS89; Staphylococcus aureus MRSA KS8): 0.39 µM (≈ 0.698 µg/mL)

Source: publication PMC6001238, “Iterative Chemical Engineering of Vancomycin Leads to Novel Vancomycin Analogs With a High in Vitro Therapeutic Index” (Frontiers in Microbiology, 2018)
